Each structure is given as a SMILES string.

The target of this test is Type-2 angiotensin II receptor (Sus scrofa). The test is described as follows: Displacement of [125I]Ang2 from AT2 receptor in pig uterus membrane.
In turn, `CC(C)Cc1cc(-c2ccc(Cn3ccnc3)cc2)c(S(=O)(=O)NC(=O)OC(C)(C)C)s1` [N-tert-butyloxycarbonyl-3-(4-imidazol-1-ylmethylphenyl)-5-iso-butylthiophene-2-sulfonamide] gave an inhibition constant (Ki) of 63 nM.
The figure for `CCCCOC(=O)NS(=O)(=O)c1ccc(OC(C)C)cc1-c1ccc(Cn2ccnc2)cc1` [N-butyloxycarbonyl-2-(4-imidazol-1-ylmethylphenyl)-4-iso-propoxybenzenesulfonamide] is 15 nM; for `CCCCc1ccc(S(=O)(=O)NC(=O)OCC)c(-c2ccc(Cn3ccnc3)cc2)c1` [N-ethyloxycarbonyl-2-(4-imidazol-1-ylmethylphenyl)-4-butylbenzenesulfonamide] it is 2 nM.
The figure for `CCCCOC(=O)NS(=O)(=O)c1sc(CCCC)cc1-c1ccc(Cn2ccnc2)cc1` [N-butyloxycarbonyl-3-(4-imidazol-1-ylmethylphenyl)-5-butylthiophene-2-sulfonamide] is 5 nM.
To `CCCCN(C)C(=O)NS(=O)(=O)c1sc(CC(C)C)cc1-c1ccc(Cn2ccnc2)cc1` [N-(N-butyl-methylaminocarbonyl)-3-(4-imidazol-1-ylmethylphenyl)-5-isobutylthiophene-2-sulfonamide] belongs 4 nM; to `CCCCOC(=O)NS(=O)(=O)c1ccc(CCCC)cc1-c1ccc(Cn2ccnc2)cc1` [N-butyloxycarbonyl-2-(4-imidazol-1-ylmethylphenyl)-4-butylbenzenesulfonamide], 5 nM; to `CCCCS(=O)(=O)NC(=O)c1sc(CC(C)C)cc1-c1ccc(Cn2ccnc2)cc1` [N-butylsulfonyl-3-(4-imidazol-1-ylmethylphenyl)-5-iso-butylthiophene-2-carboxamide], 79 nM.
With `COCCOC(=O)NS(=O)(=O)c1sc(CC(C)C)cc1-c1ccc(Cn2ccnc2)cc1` [N-(methyloxy-ethyloxycarbonyl)-3-(4-imidazol-1-ylmethylphenyl)-5-iso-butylthiophene-2-sulfonamide], the affinity corresponds to a Ki of 31 nM.
`CC(C)Cc1cc(-c2ccc(Cn3ccnc3)cc2)c(S(=O)(=O)NC(=O)OC(C)C)s1` [N-iso-propyloxycarbonyl-3-(4-imidazol-1-ylmethylphenyl)-5-iso-butylthiophene-2-sulfonamide] came in with an inhibition constant Ki of 75 nM.
The compound `CCCCS(=O)(=O)NS(=O)(=O)c1sc(CC(C)C)cc1-c1ccc(Cn2ccnc2)cc1` [N-butylsulfonyl-3-(4-imidazol-1-ylmethylphenyl)-5-iso-butylthiophene-2-sulfonamide] displayed a Ki of 76 nM.

(Values after BindingDB's records for doi:10.1021/jm0606185 (Uppsala University, 2006).)
